Experimental data published in PubChem BioAssay (NCI).
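Cells were grown in 96-well plates and exposed to each compound for 48 hours at five concentrations; endpoints were interpolated linearly between bracketing concentrations, or set to the highest concentration if not reached. TGI marks complete inhibition of growth.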

Key:
Experiment in all cases: NCI tumour cell line growth inhibition, 48 h
P388 leukemia = system: P388 leukemia
SN12K1 renal = system: SN12K1 renal
P388/ADR leukemia = system: P388/ADR leukemia
M19-MEL melanoma = system: M19-MEL melanoma
SNB-78 CNS = system: SNB-78 CNS
DMS 114 small cell lung = system: DMS 114 small cell lung
KM20L2 colon = system: KM20L2 colon
DMS 273 small cell lung = system: DMS 273 small cell lung
DLD-1 colon = system: DLD-1 colon
XF 498 CNS = system: XF 498 CNS
HOP-18 NSCLC = system: HOP-18 NSCLC
LXFL 529 NSCLC = system: LXFL 529 NSCLC
RXF-631 renal = system: RXF-631 renal

Compound | TGI (P388 leukemia) [µM] | TGI (SN12K1 renal) [µM] | TGI (P388/ADR leukemia) [µM] | TGI (M19-MEL melanoma) [µM] | TGI (SNB-78 CNS) [µM] | TGI (DMS 114 small cell lung) [µM] | TGI (KM20L2 colon) [µM] | TGI (DMS 273 small cell lung) [µM] | TGI (DLD-1 colon) [µM] | TGI (XF 498 CNS) [µM] | TGI (HOP-18 NSCLC) [µM] | TGI (LXFL 529 NSCLC) [µM] | TGI (RXF-631 renal) [µM]
Cc1c2c(cc3c1[nH]c1ccccc13)C=NCC2 | 17.6 | 14.4 | 53.1 | 33 | 63.8 | 12.9 | 34.5 | 45.8 | 33.1 | 12.6 |  |  | 
Cc1cc(O)c2c(c1O)C(=O)C13C(=C2O)C(=O)C2C(O)C1C1C(O)C3C(=O)C3=C(O)c4c(O)cc(C)c(O)c4C(=O)C321 (stereo unspecified) |  | 0.848 | 0.144 |  | 0.722 |  | > 100 | 0.621 |  | 0.504 | 1.17 |  | 
C=C1C[C@@H](O)C[C@@]2(C)C[C@@H]3OC(=O)C(=C)[C@@H]3C[C@H]12 | 8.87 | 35.7 | 31.8 | > 100 | 37.3 | 23.5 | 25.4 | 20.5 | > 36.6 | 4.71 | 15.9 |  | 
C=C1C(=O)OC2(C)C3CCC(C3)C12 (stereo unspecified) |  |  |  | > 100 | > 100 | > 100 | > 100 | > 100 | > 100 | 97.9 | > 100 |  | 
CCN(CC)CCCOC(=O)/C=C/c1c(C)[nH]c(=O)[nH]c1=O | > 625 | > 625 | > 394 | > 625 | > 625 | > 625 | > 625 | > 625 | > 625 | > 625 | > 625 |  | 
CCCCCCCCCCCCCCCCSCC(COC)COP(=O)([O-])OCC[N+](C)(C)C (stereo unspecified) | 5.26 | 24.2 | 15.2 | 11 | 26.1 | 20.8 |  | 3.9 | 11.2 | 19.8 | 16.5 |  | 
COC1=C(N=[N+]=[N-])C(=O)c2ncccc2C1=O |  |  |  | 3.8 | 12.7 | 19.6 | 33 | 25.7 | 3.14 | 16.4 |  | 3.15 | 29.9
